Measurements: patent US20210300962A1, “LIPID PRODRUGS OF PREGNANE NEU[…] USES THEREOF” (PureTech LYT, Inc., priority 2018, published 2021)

Columns and labels:
[1] = Dog pharmacokinetic studies: plasma ALLO after oral ALLO or prodrug, and after IV ALLO; type: in vivo, male beagle dogs; details: beagle dogs; for Vd: beagle, iv
Method: For the dog studies, male beagle dogs (body weights between 9.1-11.7 kg) were held in a large-animal research facility prior to the commencement of studies. The dogs were fasted for 12 h up to 30 min prior to drug administration. At 30 minutes prior to drug dosing, each animal received ˜20 g of high fat food (Teklad, TD.07096), then each animal was offered 100 g of beef-flavored canned food. Food was removed immediately prior to dosing. Following the 4 hour sample collection, food was returned (any remaining canned food and 200 g of regular diet). Water was available ad libitum throughout the study for all dogs.
For oral administration, test compounds were prepared in a suitable formulation such as a long-chain lipid based self-emulsifying drug delivery system (SEDDS) consisting of 30.5% w/w soybean oil, 30.5% w/w Maisine-CC, 31.6% w/w Cremophor EL and 7.4% w/w ethanol. Formulations were filled into hard gelatin capsules. Each animal received 2 size 000 capsules that in total contained ALLO (at 1.5 mg/kg dose) or ALLO prodrug (at 5 mg/kg dose, equivalent to approx. 1.5 mg/kg parent ALLO) in 2 grams of SEDDS formulation. Compound dissolved in the formulation was administrated to the fed dog by placing the capsules as far posterior to the pharynx as possible, closing the mouth and rubbing the throat to stimulate swallowing. Subsequently 10 mL of water was administered orally via a syringe.
For the IV group, parent ALLO (0.5 mg/kg dose) was administered as an intravenous bolus (formulation contained ALLO at concentration of 1.5 mg/mL) by way of a percutaneous catheter placed in a peripheral vein, followed by a 2 mL flush with normal saline.
Blood samples (approx. 1.5 mL each) were taken via venepuncture of the cephalic vein 5 min prior to administration up to 48 hours post-dosing. During the blood sample collection period the animals had free access to water but remained fasted for a further 4 hours following drug administration.
Plasma was separated by centrifugation and aliquots of each plasma sample transferred into eppendorf tubes and stored at −80° C. prior to analysis.
Doses are normalized to a 1.5 mg/kg equivalent ALLO dose and data are presented as mean±SD (n=4). AUC was calculated using the trapezoidal method in PKsolver—non-compartment model. Statistical significance is defined as α<0.05 when using One-way ANOVA followed by Tukey's test (paired comparison).

[2] = Non-human primate pharmacokinetic studies: plasma ALLO after oral ALLO or prodrug, and after IV ALLO; type: in vivo, male cynomolgus monkeys; details: cynomolgus monkeys; for Vd: iv
Method: For the non-human primate studies, male cynomolgus monkeys were held in a large-animal research facility prior to the commencement of studies. The monkeys were fasted overnight up to 30 min prior to drug administration. Thirty minutes prior to drug administration, each monkey received 30 mL of Ensure Milkshake via oral gavage and was allowed access to a normal ration of primate chow. The primate chow was removed at the time of drug administration and was then returned 4 hours after drug administration. Water was available ad libitum throughout the study for all monkeys.
Test compounds were prepared in a long-chain lipid-based self-emulsifying drug delivery system (SEDDS) consisting of 30.5% w/w soybean oil, 30.5% w/w Maisine-CC, 31.6% w/w Cremophor EL, and 7.4% w/w ethanol. Parent ALLO (i.e., non-prodrug allopregnanolone) was prepared in a formulation of 20% aqueous hydroxypropyl-p-cyclodextrin. Formulations were filled into hard gelatin capsules. Test compounds were dosed at 5 mg/kg, and parent ALLO was dosed at 1.5 mg/kg. Drug was administered in a single capsule followed by 10 mL of water by oral gavage. For the IV group, parent ALLO (0.5 mg/kg dose) was administered as an intravenous bolus (formulation contained ALLO at a concentration of 1.5 mg/mL) by way of a percutaneous catheter placed in a peripheral vein followed by a 2 mL flush with normal saline prior to removal of the catheter.
After oral administration, blood samples (approx. 1 mL each) were taken via venipuncture of a peripheral vein 5 min prior to administration up to 48 hours post-dosing. Blood samples were transferred into tubes containing dipotassium EDTA anticoagulant, and the tubes were placed on crushed ice until processing. Within 30 minutes of collection, the blood samples were processed to isolate plasma by centrifuging at 2200×g for 10 minutes at 5° C.±3° C. The plasma samples were stored in polypropylene tubes at −80° C. prior to analysis.
Doses are normalized to a 1.5 mg/kg equivalent ALLO dose and data are presented as mean±SD (n=6). AUC was calculated using the trapezoidal method in PKsolver—non-compartment model. Statistical significance is defined as α<0.05 when using One-way ANOVA followed by Tukey's test (paired comparison).

[3] = Rat pharmacokinetic studies: plasma allopregnanolone after oral prodrug or ALLO, and after IV ALLO; type: in vivo, male Sprague-Dawley rats
Method: In order to assess the oral bioavailability of test compounds, pharmacokinetic studies were conducted using the following procedure. The day before drug administration, male Sprague-Dawley rats (240-320 g) were anesthetized and the carotid artery was cannulated. The rats were then allowed to regain consciousness and fasted overnight prior to the commencement of experiments with free access to water. The next morning, formulations containing parent compounds or prodrugs were administered via oral gavage or via the jugular vein cannula, and blood samples were collected from the carotid artery cannula from −5 min up to 24 h post dosing. During the blood sample collection period the rats had free access to water but remained fasted for a further 8 h following drug administration. In these allopregnanolone (ALLO) related studies, the blood samples were centrifuged at 4500×g for 5 min to separate plasma. Plasma samples were stored at −20° C. prior to assay by HPLC-MS-MS. The whole blood or plasma samples were assayed for free drug (i.e. non-glyceride associated drug) and were not hydrolized prior to assay (as was the case with the lymph samples).
FIG. 3 illustrates dose-normalized ALLO plasma concentrations following oral gavage of ALLO related formulations to conscious, carotid artery-cannulated male SD rats. The ALLO oral formulation for each rat contained 2 mg of parent ALLO (i.e., non-prodrug allopregnanolone) suspended in 2 ml of suspending vehicle (0.50 sodium carboxymethyl cellulose, 0.4% Tween 80 and 0.9% NaCl in water). Prodrug formulations for each rat contained 2 mg of the ALLO prodrug dispersed in 40 mg oleic acid, 25 mg Tween 80 and 2 ml PBS. Doses were normalized to a 2 mg/kg equivalent dose of ALLO. Data are shown as mean±SD n≥3 or mean±range when n=2. […] Doses are normalized to a 2 mg/kg equivalent ALLO dose and data are presented as mean±SD when n≥3 or mean±range when n=2.
Also shown (bottom) is the calculated area under the curve (AUC) over 0-24 h for each of the test compounds as a fraction of the IV-administered allpregnanolone control.

CC(=O)[C@H]1CC[C@H]2[C@@H]3CC[C@H]4C[C@H](O)CC[C@]4(C)[C@H]3CC[C@]12C [Allopregnanolone, 5α-pregnan-3α-ol-20-one]
Apparent BA ([1]; IV ALLO (reference)): 100.0%
Vd ([1]; male, dog, plasma, 0.5 mg/kg, IV ALLO, read-out: VSS (volume of distribution during the steady state phase)): 14 ± 1.7 L/kg
Vd ([1]; male, dog, plasma, 0.5 mg/kg, IV ALLO, read-out: VZ (volume of distribution during the elimination phase)): 142 ± 29.5 L/kg
clearance ([1]; male, dog, plasma, 0.5 mg/kg, IV ALLO, read-out: Cl (clearance)): 160 ± 21.7 mL/min/kg
Tmax ([1]; male, dog, plasma, 0.5 mg/kg, IV bolus ALLO): 0 h
AUC(0-inf) ([1]; male, dog, plasma, 0.5 mg/kg, IV bolus ALLO, normalized to 1.5 mg/kg): 0.498 ± 0.0633 µM·h
Cmax ([1]; male, dog, plasma, 0.5 mg/kg, IV bolus ALLO, normalized to 1.5 mg/kg, mean±SD (n=4), read-out: Cmax (extrapolated C0)): 3.5 ± 0.572 µM
half-life ([1]; male, dog, plasma, 0.5 mg/kg, IV bolus ALLO, read-out: T1/2 (elimination phase half-life) (converted)): 10.3 ± 0.8 h
Apparent BA ([2]; IV ALLO (reference)): 100%
clearance ([2]; male, cynomolgus monkey, plasma, 0.5 mg/kg, IV ALLO, read-out: Cl (clearance)): 42.2 ± 9 mL/min/kg
Tmax ([2]; male, cynomolgus monkey, plasma, 0.5 mg/kg, IV bolus ALLO): 4.8 min
AUC(0-inf) ([2]; male, cynomolgus monkey, plasma, 0.5 mg/kg, IV bolus ALLO, normalized to 1.5 mg/kg): 1.93 ± 0.373 µM·h
Cmax ([2]; male, cynomolgus monkey, plasma, 0.5 mg/kg, IV bolus ALLO, normalized to 1.5 mg/kg, mean±SD (n=6)): 4.45 ± 0.73 µM
half-life ([2]; male, cynomolgus monkey, plasma, 0.5 mg/kg, IV bolus ALLO, read-out: T1/2 (terminal phase half-life) (converted)): 7.4 ± 1.2 h
Vd ([2]; male, cynomolgus monkey, plasma, 0.5 mg/kg, IV ALLO, read-out: VSS (volume of distribution during the steady state phase)): 2.6 ± 0.9 L/kg
Vd ([2]; male, cynomolgus monkey, plasma, 0.5 mg/kg, IV ALLO, read-out: VZ (volume of distribution during the elimination phase)): 26.9 ± 6.8 L/kg
AUC ([3]; male, Sprague-Dawley, plasma, 2 mg/kg, rat, IV, equivalent dose of allopregnanolone, n=1, read-out: AUC after intravenous administration): ~1.45 µM·h
Cmax ([3]; plasma Allo after oral gavage to rats, doses normalized to 2 mg/kg equivalent ALLO, mean±SD (n≥3) or mean±range (n=2)): below LOQ)
plasma levels after oral administration ([3]; rat, oral parent allopregnanolone): below the limit of quantification
